Laboratory results: patent publication US20240353769A1, “ELECTROPHOTOGRAPHIC PHOTORECEPTOR, COATING LIQUID FOR FORMING ELECTROPHOTOGRAPHIC PHOTORECEPTOR PROTECTIVE LAYER, COMPOUND, ELECTROPHOTOGRAPHIC PHOTORECEPTOR CARTRIDGE, AND IMAGE FORMATION DEVICE” (MITSUBISHI CHEMICAL CORPORATION, priority 2021, published 2024)

Assay: Evaluation of solubility in organic solvent (visual)
Type: physicochemical
Design: key: A (good): The compound dissolved completely at room temperature.; B (poor): Undissolved compound was observed at room temperature
Conditions: eight parts by mass in 100 parts by mass mixed solvent (19 mass % THF, 38 mass % TL, 43 mass % 2-PrOH), 25° C., stirred 10 minutes
Method: To 100 parts by mass of a mixed solvent of tetrahydrofuran (appropriately abbreviated to as THF below), toluene (appropriately abbreviated to as TL below) and 2-propanol (appropriately abbreviated to as 2-PrOH below) (19 mass % THF, 38 mass % TL and 43 mass % 2-PrOH, 25° C.), eight parts by mass of the compound 1 or 2 or the comparative compound 1 was added, and without heating or cooling, the mixtures were stirred with a rotor for 10 minutes. Then, the dissolution states were observed visually, and the solubility was evaluated by the following criteria.

| SMILES | Solubility |
| --- | --- |
| CCC(C)(C)C1=C/C(=C2/C=C(C(C)(C)CC)C(=O)c3ccccc32)c2ccccc2C1=O [Comparative Compound 1, reference compound] | B |
| C=CC(=O)OCCOC(=O)CCC(=O)Oc1cccc(C(C)C2=C/C(=C3/C=C(C(C)c4cccc(OC(=O)CCC(=O)OCCOC(=O)C=C)c4)C(=O)c4ccccc43)c3ccccc3C2=O)c1 (stereo not drawn) [Compound 1] | A |
| C=C(C)C(=O)OCC(COC(=O)C(=C)C)OC(=O)CCC(=O)Oc1cccc(C(C)C2=C/C(=C3/C=C(C(C)c4cccc(OC(=O)CCC(=O)OC(COC(=O)C(=C)C)COC(=O)C(=C)C)c4)C(=O)c4ccccc43)c3ccccc3C2=O)c1 (stereo not drawn) [Compound 2] | A |
